Literature values, collected in publication PMC7904743, “WIDOCK: a reactive docking protocol for virtual screening of covalent inhibitors” (Journal of Computer-Aided Molecular Design, 2021).
Where two headings read alike, the source gives them in different places.

Columns and labels:
[1] = thiol reactivity, cited from earlier work
OTUB2 = OTUB2 protein labeling; experimental actives if % labeling higher than 50%; cited from earlier work
NUDT7 = settings: protein labeling at 200 μM; experimental actives if % labeling higher than 50%; cited from earlier work
[2] = natural log of average kinetic rate constant
[3] = natural log of average rate constant

| Structure (SMILES) | ln(avg k) [1, 2] | ln(avg k) [1, 3] | OTUB2 % labeling (OTUB2) | NUDT7 % labeling (NUDT7) |
| --- | --- | --- | --- | --- |
| Cc1sc(NC(=O)CCl)c(C)c1C [PCM-0102968, Cc1sc(NC(=O)CCl)c(C)c1C] | -16.020 | -16.020 | 0% | 0% |
| CS(C)(=O)=NC(=O)CCl [PCM-0102969, CS(C)(=O)=NC(=O)CCl] | -15.757 | -15.757 | 0% | 0% |
| O=C(CCl)N1CCN(C(=O)C2CC2)CC1 [PCM-0102970, O=C(CCl)N1CCN(C(=O)C2CC2)CC1] | -15.304 | -15.304 | 0% | 7% |
| CC(c1cc2ccccc2o1)N(C)C(=O)CCl (stereo not drawn) [PCM-0102971, CC(c1cc2ccccc2o1)N(C)C(=O)CCl] | -16.092 | -16.092 | 0% | 66% |
| O=C(CCl)N1CCC(C(=O)N2CCCCC2)CC1 [PCM-0102972, O=C(CCl)N1CCC(C(=O)N2CCCCC2)CC1] | -15.512 | -15.512 | 8% | 0% |
| Cc1ccc(CNC(=O)CCl)s1 [PCM-0102973, Cc1ccc(CNC(=O)CCl)s1] | -16.818 | -16.818 | 75% | 11% |
| CC(C)N(C)C(=O)C1CCN(C(=O)CCl)CC1 [PCM-0102974, CC(C)N(C)C(=O)C1CCN(C(=O)CCl)CC1] | -15.247 | -15.247 | 0% | 0% |
| COC(=O)c1cccc(NC(=O)CCl)n1 [PCM-0102977, COC(=O)c1cccc(NC(=O)CCl)n1] | -16.790 | -16.790 | 0% | 0% |
| COC(=O)C1CCN(C(=O)CCl)CC1 [PCM-0102978, COC(=O)C1CCN(C(=O)CCl)CC1] | -16.559 | -16.559 | 0% | 0% |
| CCN(C(=O)CCl)c1ccccc1C [PCM-0102980, CCN(C(=O)CCl)c1ccccc1C] | -16.814 | -16.814 | 0% | 43% |
| CC(C)(C)OC(=O)CNC(=O)CCl [PCM-0102981, CC(C)(C)OC(=O)CNC(=O)CCl] | -17.661 | -17.661 | 0% | 0% |
| Cc1nc(C2(NC(=O)CCl)CCCCC2)no1 [PCM-0102983, Cc1nc(C2(NC(=O)CCl)CCCCC2)no1] | -17.277 | -17.277 | 0% | 10% |
| CN(Cc1ccccc1)C(=O)CCl [PCM-0102984, CN(Cc1ccccc1)C(=O)CCl] | -16.386 | -16.386 | 0% | 11% |
| O=C(CCl)NNC(=O)c1ccco1 [PCM-0102985, O=C(CCl)NNC(=O)c1ccco1] | -17.545 | -17.545 | 27% | 0% |
| CN(Cc1cccc(C(F)(F)F)c1)C(=O)CCl [PCM-0102987, CN(Cc1cccc(C(F)(F)F)c1)C(=O)CCl] | -15.786 | -15.786 | 0% | 9% |
| CN(Cc1nc2ccccc2s1)C(=O)CCl [PCM-0102988, CN(Cc1nc2ccccc2s1)C(=O)CCl] | -15.687 | -15.687 | 0% | 30% |
| O=C(CCl)Nc1ccc(Br)cc1 [PCM-0102992, O=C(CCl)Nc1ccc(Br)cc1] | -15.800 | -15.800 | 8% | 11% |
| N#CC1(NC(=O)CCl)CCCCC1 [PCM-0102993, N#CC1(NC(=O)CCl)CCCCC1] | -16.137 | -16.137 | 0% | 8% |
